# Organism: Rattus norvegicus
# Experiment: DrugMatrix - Regimen: Daily Repeat
# Assay type: toxicity, organism-based, Sprague-Dawley
# Set-up: regimen Daily Repeat, gender Male, age 6-8 weeks
# Conditions: in vivo, po, route oral GAVAGE, vehicle 100 % WATER; for ABSOLUTE BASOPHIL / ABSOLUTE EOSINOPHIL / ABSOLUTE MONOCYTE / ABSOLUTE SEGMENTED NEUTROPHIL / BASOPHIL / EOSINOPHIL / ERYTHROCYTE COUNT / HEMATOCRIT / LEUKOCYTE COUNT / LYMPHOCYTE / MEAN CORPUSCULAR HEMOGLOBIN / MEAN CORPUSCULAR HEMOGLOBIN CONCENTRATION / MEAN CORPUSCULAR VOLUME / MONOCYTE / NEUTROPHIL / NUCLEATED RED BLOOD CELLS / PLATELET COUNT / ABSOLUTE LYMPHOCYTE / HEMOGLOBIN: tissue Blood
# [1] = 0 mg/kg, 72 h, dose level Control, time 3 day
# [2] = 0 mg/kg, 72 h, tissue Plasma, dose level Control, time 3 day
# [3] = 0 mg/kg, 120 h, dose level Control, time 5 day
# [4] = 0 mg/kg, 120 h, tissue Plasma, dose level Control, time 5 day
# [5] = 1 mg/kg, 72 h, dose level Low, time 3 day
# [6] = 1 mg/kg, 72 h, tissue Plasma, dose level Low, time 3 day
# [7] = 1 mg/kg, 120 h, dose level Low, time 5 day
# [8] = 1 mg/kg, 120 h, tissue Plasma, dose level Low, time 5 day
# [9] = 10 mg/kg, 72 h, dose level High, time 3 day
# [10] = 10 mg/kg, 72 h, tissue Plasma, dose level High, time 3 day
# [11] = 10 mg/kg, 120 h, dose level High, time 5 day
# [12] = 10 mg/kg, 120 h, tissue Plasma, dose level High, time 5 day
sequence,measurement,setting,value
THIMEROSAL,ABSOLUTE BASOPHIL,[1],0 CELLS/uL
same,ABSOLUTE EOSINOPHIL,[1],123.17 CELLS/uL
same,ABSOLUTE MONOCYTE,[1],66.17 CELLS/uL
same,ABSOLUTE SEGMENTED NEUTROPHIL,[1],1149.5 CELLS/uL
same,BASOPHIL,[1],0%
same,EOSINOPHIL,[1],0.83%
same,ERYTHROCYTE COUNT,[1],5.26 x10E6/uL
same,HEMATOCRIT,[1],33.07%
same,LEUKOCYTE COUNT,[1],14.02 x10E3/uL
same,LYMPHOCYTE,[1],90.17%
same,MEAN CORPUSCULAR HEMOGLOBIN,[1],25.62 pg
same,MEAN CORPUSCULAR HEMOGLOBIN CONCENTRATION,[1],40.65 G/DL
same,MEAN CORPUSCULAR VOLUME,[1],63 fL
same,MONOCYTE,[1],0.5%
same,NEUTROPHIL,[1],8.5%
same,NUCLEATED RED BLOOD CELLS,[1],0.17 /100WBC
same,PLATELET COUNT,[1],1142.83 x10E3/uL
same,ALANINE AMINOTRANSFERASE,[2],45.17 u/L
same,ALKALINE PHOSPHATASE,[2],340.17 u/L
same,ASPARTATE AMINOTRANSFERASE,[2],77.33 u/L
same,BLOOD UREA NITROGEN,[2],14.67 mg/dL
same,CREATINE PHOSPHOKINASE,[2],263.67 u/L
same,CREATININE,[2],0.15 mg/dL
same,LACTATE DEHYDROGENASE,[2],230 u/L
same,PHOSPHORUS,[2],11.8 mg/dL
same,POTASSIUM,[2],5.91 MEQ/L
same,TOTAL BILIRUBIN,[2],0.22 mg/dL
same,TOTAL PROTEIN,[2],5.7 G/DL
same,URIC ACID,[2],1.35 mg/dL
same,ABSOLUTE BASOPHIL,[3],0 CELLS/uL
same,ABSOLUTE EOSINOPHIL,[3],125 CELLS/uL
same,ABSOLUTE LYMPHOCYTE,[3],13809 CELLS/uL
same,ABSOLUTE MONOCYTE,[3],351 CELLS/uL
same,ABSOLUTE SEGMENTED NEUTROPHIL,[3],1581.67 CELLS/uL
same,BASOPHIL,[3],0%
same,EOSINOPHIL,[3],0.67%
same,ERYTHROCYTE COUNT,[3],5.53 x10E6/uL
same,HEMATOCRIT,[3],34.83%
same,LEUKOCYTE COUNT,[3],15.87 x10E3/uL
same,LYMPHOCYTE,[3],87.5%
same,MEAN CORPUSCULAR HEMOGLOBIN,[3],25.25 pg
same,MEAN CORPUSCULAR HEMOGLOBIN CONCENTRATION,[3],40.08 G/DL
same,MEAN CORPUSCULAR VOLUME,[3],63.05 fL
same,MONOCYTE,[3],2.17%
same,NEUTROPHIL,[3],9.67%
same,NUCLEATED RED BLOOD CELLS,[3],0 /100WBC
same,PLATELET COUNT,[3],1044 x10E3/uL
same,ALANINE AMINOTRANSFERASE,[4],50.67 u/L
same,ALKALINE PHOSPHATASE,[4],395 u/L
same,ASPARTATE AMINOTRANSFERASE,[4],86 u/L
same,CARBON DIOXIDE,[4],29.33 mmol/L
same,CHOLESTEROL,[4],71.33 mg/dL
same,CREATINE PHOSPHOKINASE,[4],323.17 u/L
same,CREATININE,[4],0.18 mg/dL
same,LACTATE DEHYDROGENASE,[4],389.5 u/L
same,LIPASE,[4],9.83 u/L
same,PHOSPHORUS,[4],11.35 mg/dL
same,POTASSIUM,[4],6.39 MEQ/L
same,TOTAL BILIRUBIN,[4],0.18 mg/dL
same,TOTAL PROTEIN,[4],6.1 G/DL
same,URIC ACID,[4],1.52 mg/dL
same,ABSOLUTE BASOPHIL,[5],0 CELLS/uL
same,ABSOLUTE EOSINOPHIL,[5],68 CELLS/uL
same,ABSOLUTE LYMPHOCYTE,[5],13921 CELLS/uL
same,ABSOLUTE MONOCYTE,[5],100.67 CELLS/uL
same,ABSOLUTE SEGMENTED NEUTROPHIL,[5],710.33 CELLS/uL
same,BASOPHIL,[5],0%
same,EOSINOPHIL,[5],0.33%
same,ERYTHROCYTE COUNT,[5],5.23 x10E6/uL
same,HEMATOCRIT,[5],33.4%
same,HEMOGLOBIN,[5],13.6 G/DL
same,LEUKOCYTE COUNT,[5],14.8 x10E3/uL
same,LYMPHOCYTE,[5],94.33%
same,MEAN CORPUSCULAR HEMOGLOBIN,[5],26.03 pg
same,MEAN CORPUSCULAR HEMOGLOBIN CONCENTRATION,[5],40.73 G/DL
same,MEAN CORPUSCULAR VOLUME,[5],63.97 fL
same,MONOCYTE,[5],0.67%
same,NEUTROPHIL,[5],4.67%
same,NUCLEATED RED BLOOD CELLS,[5],0 /100WBC
same,PLATELET COUNT,[5],1138.67 x10E3/uL
same,ALANINE AMINOTRANSFERASE,[6],49 u/L
same,ALKALINE PHOSPHATASE,[6],344.33 u/L
same,ASPARTATE AMINOTRANSFERASE,[6],77 u/L
same,BLOOD UREA NITROGEN,[6],12.33 mg/dL
same,CHLORIDE,[6],100 MEQ/L
same,CHOLESTEROL,[6],82.33 mg/dL
same,CREATINE PHOSPHOKINASE,[6],236.33 u/L
same,CREATININE,[6],0.13 mg/dL
same,GLUCOSE,[6],155 mg/dL
same,LACTATE DEHYDROGENASE,[6],196.33 u/L
same,PHOSPHORUS,[6],11.57 mg/dL
same,POTASSIUM,[6],6.96 MEQ/L
same,TOTAL BILIRUBIN,[6],0.2 mg/dL
same,TOTAL PROTEIN,[6],5.73 G/DL
same,ABSOLUTE BASOPHIL,[7],0 CELLS/uL
same,ABSOLUTE EOSINOPHIL,[7],50.33 CELLS/uL
same,ABSOLUTE MONOCYTE,[7],268.67 CELLS/uL
same,ABSOLUTE SEGMENTED NEUTROPHIL,[7],1091 CELLS/uL
same,BASOPHIL,[7],0%
same,EOSINOPHIL,[7],0.33%
same,ERYTHROCYTE COUNT,[7],5.58 x10E6/uL
same,HEMATOCRIT,[7],35.07%
same,LEUKOCYTE COUNT,[7],11.73 x10E3/uL
same,LYMPHOCYTE,[7],88%
same,MEAN CORPUSCULAR HEMOGLOBIN,[7],25.23 pg
same,MEAN CORPUSCULAR HEMOGLOBIN CONCENTRATION,[7],40.13 G/DL
same,NUCLEATED RED BLOOD CELLS,[7],0 /100WBC
same,PLATELET COUNT,[7],1316.33 x10E3/uL
same,ALANINE AMINOTRANSFERASE,[8],43.33 u/L
same,ALKALINE PHOSPHATASE,[8],369 u/L
same,ASPARTATE AMINOTRANSFERASE,[8],83.33 u/L
same,BLOOD UREA NITROGEN,[8],15.67 mg/dL
same,CARBON DIOXIDE,[8],30.33 mmol/L
same,CHOLESTEROL,[8],67.33 mg/dL
same,CREATINE PHOSPHOKINASE,[8],227.33 u/L
same,CREATININE,[8],0.2 mg/dL
same,GLUCOSE,[8],177.33 mg/dL
same,LACTATE DEHYDROGENASE,[8],246 u/L
same,LIPASE,[8],10 u/L
same,PHOSPHORUS,[8],11.2 mg/dL
same,POTASSIUM,[8],6.65 MEQ/L
same,TOTAL BILIRUBIN,[8],0.27 mg/dL
same,TOTAL PROTEIN,[8],5.93 G/DL
same,URIC ACID,[8],1.4 mg/dL
same,ABSOLUTE BASOPHIL,[9],0 CELLS/uL
same,ABSOLUTE EOSINOPHIL,[9],0 CELLS/uL
same,ABSOLUTE MONOCYTE,[9],196.33 CELLS/uL
same,ABSOLUTE SEGMENTED NEUTROPHIL,[9],1492 CELLS/uL
same,BASOPHIL,[9],0%
same,EOSINOPHIL,[9],0%
same,ERYTHROCYTE COUNT,[9],5.18 x10E6/uL
same,HEMATOCRIT,[9],33.3%
same,HEMOGLOBIN,[9],13.3 G/DL
same,LEUKOCYTE COUNT,[9],14.17 x10E3/uL
same,LYMPHOCYTE,[9],88.67%
same,MEAN CORPUSCULAR HEMOGLOBIN,[9],25.73 pg
same,MEAN CORPUSCULAR HEMOGLOBIN CONCENTRATION,[9],39.93 G/DL
same,NEUTROPHIL,[9],10%
same,NUCLEATED RED BLOOD CELLS,[9],0.33 /100WBC
same,PLATELET COUNT,[9],1209 x10E3/uL
same,ALANINE AMINOTRANSFERASE,[10],54.33 u/L
same,ALBUMIN,[10],3.7 G/DL
same,ALKALINE PHOSPHATASE,[10],440.67 u/L
same,ASPARTATE AMINOTRANSFERASE,[10],82.67 u/L
same,BLOOD UREA NITROGEN,[10],15 mg/dL
same,CARBON DIOXIDE,[10],30 mmol/L
same,CHOLESTEROL,[10],107.67 mg/dL
same,CREATINE PHOSPHOKINASE,[10],183.33 u/L
same,CREATININE,[10],0.16 mg/dL
same,LACTATE DEHYDROGENASE,[10],137 u/L
same,PHOSPHORUS,[10],11 mg/dL
same,POTASSIUM,[10],6.64 MEQ/L
same,TOTAL BILIRUBIN,[10],0.2 mg/dL
same,TOTAL PROTEIN,[10],5.57 G/DL
same,ABSOLUTE BASOPHIL,[11],0 CELLS/uL
same,ABSOLUTE EOSINOPHIL,[11],0 CELLS/uL
same,ABSOLUTE LYMPHOCYTE,[11],10043.33 CELLS/uL
same,ABSOLUTE MONOCYTE,[11],291.67 CELLS/uL
same,ABSOLUTE SEGMENTED NEUTROPHIL,[11],1665 CELLS/uL
same,BASOPHIL,[11],0%
same,EOSINOPHIL,[11],0%
same,ERYTHROCYTE COUNT,[11],6.38 x10E6/uL
same,HEMATOCRIT,[11],39.67%
same,HEMOGLOBIN,[11],15.6 G/DL
same,LEUKOCYTE COUNT,[11],12 x10E3/uL
same,LYMPHOCYTE,[11],84.67%
same,MEAN CORPUSCULAR HEMOGLOBIN,[11],24.57 pg
same,NEUTROPHIL,[11],13%
same,NUCLEATED RED BLOOD CELLS,[11],0 /100WBC
same,PLATELET COUNT,[11],1253 x10E3/uL
same,ALANINE AMINOTRANSFERASE,[12],56.33 u/L
same,ALKALINE PHOSPHATASE,[12],463.67 u/L
same,ASPARTATE AMINOTRANSFERASE,[12],83.67 u/L
same,BLOOD UREA NITROGEN,[12],15.67 mg/dL
same,CHOLESTEROL,[12],116.33 mg/dL
same,CREATINE PHOSPHOKINASE,[12],208.33 u/L
same,CREATININE,[12],0.22 mg/dL
same,GLUCOSE,[12],156 mg/dL
same,LACTATE DEHYDROGENASE,[12],176.33 u/L
same,PHOSPHORUS,[12],10.43 mg/dL
same,POTASSIUM,[12],6.38 MEQ/L
same,TOTAL BILIRUBIN,[12],0.1 mg/dL
same,TOTAL PROTEIN,[12],6 G/DL
same,URIC ACID,[12],1.63 mg/dL

# From ChEMBL document CHEMBL3885881, “DrugMatrix”
